Data reported in patent US9630914B2, “Multitarget FAAH and COX inhibitors and therapeutical uses thereof” (FONDAZIONE ISTITUTO ITALIANO DI TECNOLOGIA, priority 2012, dated 2017).
Where two headings read alike, the source gives them in different places.

Experiments:
gastric mucosa = test: Gastric lesions (gastric irritation, ulceration index); assay type: in vivo; settings: food-deprived mice
Text: (§1) Male CD1 mice, weighing 25-30 g, (Charles River, Calco, Italy) were used. Procedures were in accordance with the Ethical Guidelines of the International Association for the Study of Pain and were approved by Italian regulations on protection of animals used for experimental and other scientific purposes (D. M. 116192) as well as with European Economic Community regulations (O. J. of E. C. L 358/1 Dec. 18, 1986). Mice were housed in groups of 5 in ventilated cages containing autoclaved cellulose paper as nesting material, with free access to food and water. They were maintained under a 12 h light/dark cycle (lights on at 08:00 a.m.), at controlled temperature (21±1° C.) and relative humidity (55±10%). The animals are randomly divided in groups of 6 mice. Behavioral testing was performed between 9:00 a.m. and 5:00 p.m. Scientists running the experiments were not aware of the treatment protocol at the time of the test (blind procedure).
To study the gastric irritation the protocol of Chan et al. (1995) was followed. […] After 4 h, the mice were killed by CO2 asphyxiation. The stomachs were removed, opened, rinsed in PBS, and the stomach lining was photographed. Scoring was done by observers blinded to experimental conditions, as previously reported (Jain et al., 2002): red coloration=0.5; spot ulcers=1; hemorrhagic streaks=1.5. […]

[1] = tested on: carrageenan-induced inflammation and hyperalgesia; test: Carrageenan test (paw edema and thermal hyperalgesia); assay type: in vivo, mice
Text: as §1
The pro-inflammatory agent λ-carrageenan (1% weight-vol^−1 in sterile water, 50 μL) was injected into the left hind paw of slightly restrained mice, and paw volume was measured with a plethysmometer (Ugo Basile, Comerio, Italy), while thermal hyperalgesia was assessed by the method of Hargreaves et al. (1988), measuring the latency to withdraw the hind paw from a focused beam of radiant heat (thermal intensity: infrared 3.0) in a plantar test apparatus (Ugo Basile, Comerio, Italy). Cutoff time was set at 30 s. Withdrawal latencies were measured on both ipsilateral and contralateral paws at various time points after drug administration.
Drug solutions were prepared immediately before use in saline containing 10% PEG-400 and 10% Tween 80 and orally administered in a volume of 2.5 mL-kg^−1 before intraplantar injection of carrageenan.
Results are expressed as the mean±S.E.M., or 95% confidence limits (95% CL). Efficacy data were compared using two-way analysis of variance (ANOVA) followed by Bonferroni's test for multiple comparisons. For gastric toxicity, the significance of differences between groups was determined by one-way ANOVA followed by a Bonferroni's test for multiple comparisons.

ovine COX-1 = ovine COX-1 (Ovis aries (Sheep), UniProt P05979); test: In vitro COX assay (COX Inhibitor Screening Assay Kit), COX-1; assay type: biochemical; settings: 5 μM arachidonic acid
ovine COX-1, sequence (P05979 25-600): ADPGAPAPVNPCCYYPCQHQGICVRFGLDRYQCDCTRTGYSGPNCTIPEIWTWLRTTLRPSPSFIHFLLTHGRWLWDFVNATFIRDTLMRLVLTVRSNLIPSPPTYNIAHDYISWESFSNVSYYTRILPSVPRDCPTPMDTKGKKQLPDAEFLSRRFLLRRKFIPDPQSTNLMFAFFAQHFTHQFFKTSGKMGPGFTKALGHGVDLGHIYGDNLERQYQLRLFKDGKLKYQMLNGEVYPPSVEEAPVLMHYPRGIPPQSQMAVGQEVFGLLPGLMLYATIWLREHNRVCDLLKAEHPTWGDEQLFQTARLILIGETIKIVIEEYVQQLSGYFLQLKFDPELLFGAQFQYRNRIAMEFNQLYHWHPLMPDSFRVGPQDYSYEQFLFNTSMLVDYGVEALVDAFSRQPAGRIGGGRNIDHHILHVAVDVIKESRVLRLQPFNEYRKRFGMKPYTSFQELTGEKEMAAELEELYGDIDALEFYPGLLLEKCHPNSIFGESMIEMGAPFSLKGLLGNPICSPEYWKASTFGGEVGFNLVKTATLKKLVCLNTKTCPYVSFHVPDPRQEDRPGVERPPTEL
Experimental: COX activity was measured using a commercial kit (COX Inhibitor Screening Assay Kit—Cayman Chemical N. 560131) which includes both ovine COX-1 and human recombinant COX-2 enzymes. Inhibitors were pre-incubated with either ovine COX-1 or human COX-2 in order to screen isozyme-specific inhibition. Differently than described in the kit protocol, the reaction was carried out in the presence of 5 μM arachidonic acid while for the blank sample (no activity) the two enzymes were inactivated for 40 minutes at 100° C. It was then measured the amount of PGF2α produced by reduction with SnCl2 of COX-derived PGH2, via enzyme immunoassay (EIA) using a PG-specific antibody and competing with a PG-acetylcholinesterase conjugate.
Absorbance was measured at 412 nm with a Tecan Infinite M200 plate reader and data were processed according to manufacturer's instructions.
The median inhibitory concentrations (IC50) were determined by non-linear regression analysis of the Log [concentration]/response curves generated with mean replicate values using a four parameter Hill equation curve fitting with GraphPad Prism 5 (GraphPad Software Inc., CA-USA).

FAAH = settings: literature value; cited from earlier work
[2] = oral, 3, 10, 30 and 100 mg/kg, mouse

CC(C(=O)O)c1ccc(-c2ccccc2)c(F)c1 (stereo not shown) [Compound A, flurbiprofen, reference compound]
gastric irritation and gastric ulcers (gastric mucosa; oral 30 mg/kg): profound gastric irritation and appearance of gastric ulcers | ED50 ([1]; oral, mouse carrageenan model, read-out: ED50 on edema (Δ volume paw)): 30 mg/kg | ED50 ([1]; oral, mouse carrageenan model, read-out: ED50 on thermal hyperalgesia (withdrawal latency)): 30 mg/kg

CCCCCCNC(=O)Oc1cccc(-c2ccc(C(C)C(=O)O)cc2F)c1 (stereo not shown) [Example 12, 2-[3-fluoro-4-[3-(hexylcarbamoyloxy)phenyl]phenyl]propanoic acid]
ulcerogenic effect (gastric mucosa; oral, up to 100 mg/kg): no ulcerogenic effect | IC50 (ovine COX-1): 12 nM | ED50 ([1]; Mus musculus, read-out: ED50 on edema (Δ volume paw)): 10 mg/kg | ED50 ([1]; Mus musculus, read-out: ED50 on thermal hyperalgesia (withdrawal latency)): 10 mg/kg | effect on carrageenan-induced inflammation and hyperalgesia [1, 2]: dose-dependent and persistent suppression | potency at inhibiting the responses induced by carrageenan, compared with compound A [1, 2]: more potent than oral compound A

Cc1cccnc1NC(=O)C(C)c1ccc(CC(C)C)cc1 (stereo not shown) [Ibu-am5]
IC50 (FAAH): 2700 nM
